{"source": "patent US8765728B2", "about": "“[1,5]-diazocin derivatives” (MelliTech, priority 2009, dated 2014)"}
{"system": "Min6 cell", "test": "Insulin secretion response of beta cell line to formula I compounds (insulin ELISA)", "format": "cell-based", "settings": "rank according to % increase versus control at most effective dose", "summary_of_the_method": "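After compound or vehicle exposure, Min6 cells were held 2 h in glucose-free medium and preincubated 30 min at 37° C in glucose-free KRBH (pH 7.4, 0.1% BSA). They were then incubated 30 min at 37° C in KRBH with varying glucose. Secreted insulin and acid-ethanol-extracted intracellular insulin were measured by ELISA.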"}
{"compound": "Cc1noc(C)c1C(=O)N1CCC(=O)N(C2CC2)Cc2cc(OC(F)F)ccc21", "note": "[Compound 115, 5-cyclopropyl-8-(difluoromethoxy)-1-(3,5-dimethylisoxazole-4-carbonyl)-2,3,5,6-tetrahydrobenzo[b][1,5]diazocin-4(1H)-one]", "Insulin secretion (Min6 cell) Range 1 to 5": "1 (1: 90-110% of control)"}
{"compound": "O=C(c1cnccn1)N1CCC(=O)N(C2CC2)Cc2cc(OC(F)F)ccc21", "note": "[Compound 116, 5-cyclopropyl-8-(difluoromethoxy)-1-(pyrazine-2-carbonyl)-2,3,5,6-tetrahydrobenzo[b][1,5]diazocin-4(1H)-one]", "Insulin secretion (Min6 cell) Range 1 to 5": "2 (2: 110-120% of control)"}
{"compound": "O=C1CCN(C[C@@H](O)COc2cccc(F)c2)c2ccc(OC(F)F)cc2CN1C1CC1", "note": "[Compound 117, (R)-5-cyclopropyl-8-(difluoromethoxy)-1-(3-(3-fluorophenoxy)-2-hydroxypropyl)-2,3,5,6-tetrahydrobenzo[b][1,5]diazocin-4(1H)-one]", "Insulin secretion (Min6 cell) Range 1 to 5": "1 (1: 90-110% of control)"}
{"compound": "O=C1CCN(C[C@H](O)COc2cccc(F)c2)c2ccc(OC(F)F)cc2CN1C1CC1", "note": "[Compound 118, (S)-5-cyclopropyl-8-(difluoromethoxy)-1-(3-(3-fluorophenoxy)-2-hydroxypropyl)-2,3,5,6-tetrahydrobenzo[b][1,5]diazocin-4(1H)-one]", "Insulin secretion (Min6 cell) Range 1 to 5": "2 (2: 110-120% of control)"}
{"compound": "O=C1CCN(C[C@@H](O)COc2ccc(Cl)cc2)c2ccc(OC(F)F)cc2CN1C1CC1", "note": "[Compound 119, (R)-1-(3-(4-chlorophenoxy)-2-hydroxypropyl)-5-cyclopropyl-8-(difluoromethoxy)-2,3,5,6-tetrahydrobenzo[b][1,5]diazocin-4(1H)-one]", "Insulin secretion (Min6 cell) Range 1 to 5": "3 (3: 120-140% of control)"}
{"compound": "O=C1CCN(C[C@H](O)COc2ccc(Cl)cc2)c2ccc(OC(F)F)cc2CN1C1CC1", "note": "[Compound 120, (S)-1-(3-(4-chlorophenoxy)-2-hydroxypropyl)-5-cyclopropyl-8-(difluoromethoxy)-2,3,5,6-tetrahydrobenzo[b][1,5]diazocin-4(1H)-one]", "Insulin secretion (Min6 cell) Range 1 to 5": "1 (1: 90-110% of control)"}
{"compound": "COCC(=O)N1CCC(=O)N(C2CC2)Cc2cc(F)ccc21", "note": "[Compound 121, 5-cyclopropyl-8-fluoro-1-(2-methoxyacetyl)-2,3,5,6-tetrahydrobenzo[b][1,5]diazocin-4(1H)-one]", "Insulin secretion (Min6 cell) Range 1 to 5": "1 (1: 90-110% of control)"}
{"compound": "O=C(COc1ccccc1)N1CCC(=O)N(C2CC2)Cc2cc(F)ccc21", "note": "[Compound 122, 5-cyclopropyl-8-fluoro-1-(2-phenoxyacetyl)-2,3,5,6-tetrahydrobenzo[b][1,5]diazocin-4(1H)-one]", "Insulin secretion (Min6 cell) Range 1 to 5": "1 (1: 90-110% of control)"}
{"compound": "O=C(c1ccco1)N1CCC(=O)N(C2CC2)Cc2cc(F)ccc21", "note": "[Compound 123, 5-cyclopropyl-8-fluoro-1-(furan-2-carbonyl)-2,3,5,6-tetrahydrobenzo[b][1,5]diazocin-4(1H)-one]", "Insulin secretion (Min6 cell) Range 1 to 5": "1 (1: 90-110% of control)"}
{"compound": "O=C1CCNc2ccc(OC(F)F)cc2CN1C1CC1", "note": "[Compound 124, 5-cyclopropyl-8-(difluoromethoxy)-2,3,5,6-tetrahydrobenzo[b][1,5]diazocin-4(1H)-one]", "Insulin secretion (Min6 cell) Range 1 to 5": "1 (1: 90-110% of control)"}
{"compound": "Cn1cnc(S(=O)(=O)N2CCC(=O)N(C3CC3)Cc3c2ccc2c3OCCO2)c1", "note": "[Compound 125, 11-cyclopropyl-7-((1-methyl-1H-imidazol-4-yl)sulfonyl)-2,3,8,9,11,12-hexahydro-[1,4]dioxino[2′,3′:3,4]benzo[1,2-b][1,5]diazocin-10(7H)-one]", "Insulin secretion (Min6 cell) Range 1 to 5": "1 (1: 90-110% of control)"}
{"compound": "O=C1CCN(C[C@@H](O)COc2ccc(Cl)cc2)c2ccc3c(c2CN1C1CC1)OCCO3", "note": "[Compound 126, (R)-7-(3-(4-chlorophenoxy)-2-hydroxypropyl)-11-cyclopropyl-2,3,8,9,11,12-hexahydro-[1,4]dioxino[2′,3′:3,4]benzo[1,2-b][1,5]diazocin-10(7H)-one]", "Insulin secretion (Min6 cell) Range 1 to 5": "2 (2: 110-120% of control)"}
{"compound": "COc1ccc2c(c1OC(F)F)CN(C1CC1)C(=O)CCN2", "note": "[Compound 127, 5-cyclopropyl-7-(difluoromethoxy)-8-methoxy-2,3,5,6-tetrahydrobenzo[b][1,5]diazocin-4(1H)-one]", "Insulin secretion (Min6 cell) Range 1 to 5": "1 (1: 90-110% of control)"}
{"compound": "O=C(c1cnccn1)N1CCC(=O)N(C2CC2)Cc2c1ccc1c2OCCO1", "note": "[Compound 128, 11-cyclopropyl-7-(pyrazine-2-carbonyl)-2,3,8,9,11,12-hexahydro-[1,4]dioxino[2′,3′:3,4]benzo[1,2-b][1,5]diazocin-10(7H)-one]", "Insulin secretion (Min6 cell) Range 1 to 5": "1 (1: 90-110% of control)"}
{"compound": "COc1ccc2c(c1OC(F)F)CN(C1CC1)C(=O)CCN2C(=O)c1cnccn1", "note": "[Compound 129, 5-cyclopropyl-7-(difluoromethoxy)-8-methoxy-1-(pyrazine-2-carbonyl)-2,3,5,6-tetrahydrobenzo[b][1,5]diazocin-4(1H)-one]", "Insulin secretion (Min6 cell) Range 1 to 5": "2 (2: 110-120% of control)"}
{"compound": "O=C(c1cnccn1)N1CCC(=O)N(C2CC2)Cc2cc(F)ccc21", "note": "[Compound 130, 5-cyclopropyl-8-fluoro-1-(pyrazine-2-carbonyl)-2,3,5,6-tetrahydrobenzo[b][1,5]diazocin-4(1H)-one]", "Insulin secretion (Min6 cell) Range 1 to 5": "1 (1: 90-110% of control)"}
{"compound": "O=C(c1ccccn1)N1CCC(=O)N(C2CC2)Cc2cc(Cl)ccc21", "note": "[Compound 131, 8-chloro-5-cyclopropyl-1-picolinoyl-2,3,5,6-tetrahydrobenzo[b][1,5]diazocin-4(1H)-one]", "Insulin secretion (Min6 cell) Range 1 to 5": "1 (1: 90-110% of control)"}
{"compound": "O=C(c1ccccn1)N1CCC(=O)N(C2CC2)Cc2c1ccc1c2OCCO1", "note": "[Compound 132, 11-cyclopropyl-7-picolinoyl-2,3,8,9,11,12-hexahydro-[1,4]dioxino[2′,3′:3,4]benzo[1,2-b][1,5]diazocin-10(7H)-one]", "Insulin secretion (Min6 cell) Range 1 to 5": "1 (1: 90-110% of control)"}
{"compound": "O=C(c1cnccn1)N1CCC(=O)N(C2CC2)Cc2cc(Cl)ccc21", "note": "[Compound 133, 8-chloro-5-cyclopropyl-1-(pyrazine-2-carbonyl)-2,3,5,6-tetrahydrobenzo[b][1,5]diazocin-4(1H)-one]", "Insulin secretion (Min6 cell) Range 1 to 5": "2 (2: 110-120% of control)"}
{"compound": "COc1ccc2c(c1OC(F)F)CN(C1CC1)C(=O)CCN2C[C@@H](O)COc1ccc(Cl)cc1", "note": "[Compound 134, (R)-1-(3-(4-chlorophenoxy)-2-hydroxypropyl)-5-cyclopropyl-7-(difluoromethoxy)-8-methoxy-2,3,5,6-tetrahydrobenzo[b][1,5]diazocin-4(1H)-one]", "Insulin secretion (Min6 cell) Range 1 to 5": "1 (1: 90-110% of control)"}
{"compound": "O=C1CCN(C[C@@H](O)COc2ccc(Cl)cc2)c2ccc(Cl)cc2CN1C1CC1", "note": "[Compound 135, (R)-8-chloro-1-(3-(4-chlorophenoxy)-2-hydroxypropyl)-5-cyclopropyl-2,3,5,6-tetrahydrobenzo[b][1,5]diazocin-4(1H)-one]", "Insulin secretion (Min6 cell) Range 1 to 5": "1 (1: 90-110% of control)"}
{"compound": "CS(=O)(=O)c1ccc(OC[C@H](O)CN2CCC(=O)N(C3CC3)Cc3cc(F)ccc32)cc1", "note": "[Compound 136, (R)-5-cyclopropyl-8-fluoro-1-(2-hydroxy-3-(4-(methylsulfonyl)phenoxy)propyl)-2,3,5,6-tetrahydrobenzo[b][1,5]diazocin-4(1H)-one]", "Insulin secretion (Min6 cell) Range 1 to 5": "1 (1: 90-110% of control)"}
{"compound": "CS(=O)(=O)c1ccc(OC[C@H](O)CN2CCC(=O)N(C3CC3)Cc3cc(Cl)ccc32)cc1", "note": "[Compound 137, (R)-8-chloro-5-cyclopropyl-1-(2-hydroxy-3-(4-(methylsulfonyl)phenoxy)propyl)-2,3,5,6-tetrahydrobenzo[b][1,5]diazocin-4(1H)-one]", "Insulin secretion (Min6 cell) Range 1 to 5": "2 (2: 110-120% of control)"}
{"compound": "Cc1cc(C(=O)N2CCC(=O)N(C3CC3)Cc3c2ccc2c3OCCO2)on1", "note": "[Compound 138, 11-cyclopropyl-7-(3-methylisoxazole-5-carbonyl)-2,3,8,9,11,12-hexahydro-[1,4]dioxino[2′,3′:3,4]benzo[1,2-b][1,5]diazocin-10(7H)-one]", "Insulin secretion (Min6 cell) Range 1 to 5": "1 (1: 90-110% of control)"}
{"compound": "Cc1cc(C(=O)N2CCC(=O)N(C3CC3)Cc3cc(Cl)ccc32)on1", "note": "[Compound 139, 8-chloro-5-cyclopropyl-1-(3-methylisoxazole-5-carbonyl)-2,3,5,6-tetrahydrobenzo[b][1,5]diazocin-4(1H)-one]", "Insulin secretion (Min6 cell) Range 1 to 5": "1 (1: 90-110% of control)"}
{"compound": "COc1ccc2c(c1OC(F)F)CN(C1CC1)C(=O)CCN2C(=O)c1cc(C)no1", "note": "[Compound 140, 5-cyclopropyl-7-(difluoromethoxy)-8-methoxy-1-(3-methylisoxazole-5-carbonyl)-2,3,5,6-tetrahydrobenzo[b][1,5]diazocin-4(1H)-one]", "Insulin secretion (Min6 cell) Range 1 to 5": "3 (3: 120-140% of control)"}
{"compound": "COc1ccc2c(c1)CN(C1CC1)C(=O)CCN2C(=O)c1cc(C)no1", "note": "[Compound 141, 5-cyclopropyl-8-methoxy-1-(3-methylisoxazole-5-carbonyl)-2,3,5,6-tetrahydrobenzo[b][1,5]diazocin-4(1H)-one]", "Insulin secretion (Min6 cell) Range 1 to 5": "4 (4: 140-170% of control)"}
{"compound": "Cc1cc(C(=O)N2CCC(=O)N(C3CC3)Cc3cc(OC(F)F)ccc32)on1", "note": "[Compound 142, 5-cyclopropyl-8-(difluoromethoxy)-1-(3-methylisoxazole-5-carbonyl)-2,3,5,6-tetrahydrobenzo[b][1,5]diazocin-4(1H)-one]", "Insulin secretion (Min6 cell) Range 1 to 5": "4 (4: 140-170% of control)"}
{"compound": "O=C(CN1CCC(=O)N(C2CC2)Cc2cc(Cl)ccc21)c1ccc(OC(F)F)cc1", "note": "[Compound 143, 8-chloro-5-cyclopropyl-1-(2-(4-(difluoromethoxy)phenyl)-2-oxoethyl)-2,3,5,6-tetrahydrobenzo[b][1,5]diazocin-4(1H)-one]", "Insulin secretion (Min6 cell) Range 1 to 5": "2 (2: 110-120% of control)"}
{"compound": "O=C(CN1CCC(=O)N(C2CC2)Cc2c1ccc1c2OCCO1)c1ccc(OC(F)F)cc1", "note": "[Compound 144, 11-cyclopropyl-7-(2-(4-(difluoromethoxy)phenyl)-2-oxoethyl)-2,3,8,9,11,12-hexahydro-[1,4]dioxino[2′,3′:3,4]benzo[1,2-b][1,5]diazocin-10(7H)-one]", "Insulin secretion (Min6 cell) Range 1 to 5": "1 (1: 90-110% of control)"}
